This is an account of results in PMC11676762, “Control of Postharvest Green Mold in Citrus by the Antimicrobial Peptide BP15 and Its Lipopeptides” (Journal of Fungi, 2024).

Converted amounts (≈) assume the structure as drawn. “And” between values parts separate entries of the source, which are not always exact repeats. Identical values can stand only once. Like-named read-outs stand apart in the source and are kept apart here. Marks after values point to notes of the source that are not given here.

Data set [1] has as its system P. digitatum. The note with it: for MFC: 50 μL from mycelium-free well plated on PDA, no pathogen growth; for MFC / MIC: 25 °C; for MIC: lowest peptide concentration completely inhibiting growth for 48 h, spores 1 × 10^4 CFU/mL, 5% PDB, triplicate. Here is the method: The experiment was adapted from the method of Jia et al.. A 180 μL spore suspension (1 × 10^4 CFU/mL), containing 5% potato dextrose broth (PDB) by volume, was mixed with 20 μL of peptide solution in a sterile 96-well microplate and thoroughly mixed. The final peptide concentrations were 0.78, 1.56, 3.12, 6.25, 12.5, 25, 50, and 100 μM, with sterile water as the control. The mixtures were cultured in an incubator at 25 °C for 48 h, and the light absorption at OD600nm was measured using an 800TS full-wavelength microplate reader (Bio Tek Instruments, Inc., Winooski, VT, USA). The minimum inhibitory concentration (MIC) was defined as the lowest peptide concentration completely inhibiting fungus growth for 48 h. Then, a 50 μL sample from the mycelium-free well was plated on PDA and left to culture at 25 °C for 48 h. The minimum fungicidal concentration (MFC) was the peptide concentration at which there was no pathogen growth after 48 h.

The subject of data set [2] is sheep red blood cells. The note with it: test range, significantly lower than commercial prochloraz (p < 0.05), results not yet published.
For data set [3], the system named is P. digitatum mycelia. The data set is described as follows: Mycelial survival assay (MTT). Particulars: 100 μM peptide, 3 h at 25 °C, then MTT 16 h; mean of triplicate. Format: cell-based, Penicillium digitatum. The procedure: The mycelial survival rate was determined according to by Weerden et al.. A spore suspension (5 × 10^4 CFU/mL) was prepared with 5% PDB and incubated for 24 h at 25 °C. […] The mixtures were cultured at 25 °C for 3 h before the addition of 10 μL of 3-(4,5-dimethylthiazol-2-yl)-2,5-diphenyltetrazolium bromide (MTT; 5 mg/mL; MACKLIN). The plates were then incubated in a dark environment for 16 h, followed by the addition of DMSO (100 μL).

Data set [4] has as its system P. digitatum mycelia. Nature of the data set: Sytox Green fluorescence microscopy (membrane permeability). Particulars: 2 h, Sytox Green 0.2 μM. Format: cell-based, Penicillium digitatum. The procedure:
The experiment protocol was adapted from Li et al.. A spore suspension (10^5 CFU/mL) of 90 μL was prepared with 5% PDB and incubated for 24 h at 25 °C. Subsequently, the peptide solution was added to final concentrations of the MIC, the MFC, and 100 μM, and the mixtures were left for 2 h, with sterile water as the control. After incubation, Sytox Green (Molecular Probes; KeyGen Biotech Co., Nanjing, China) was added at 4 μM and thte final concentration was 0.2 μM and was incubated for 5 min in the dark. The treated samples were washed with sterile water, resuspended in 20% glycerol solution, and prepared and observed under a DM3000 fluorescence microscope (Leica, Weztlar, Germany).

Data set [5] deals with P. digitatum genomic DNA. Nature of the data set: DNA binding gel retardation assay. The note with it: peptide:DNA 1:1 (v/v), room temperature 30 min, 1% agarose gel. Also noted: species or system Penicillium digitatum. Here is the method:
In accordance with Miao et al. with slight adjustments, the gel retardation effect was analyzed. The P. digitatum DNA was extracted according to the operation steps of the TIANGEN plant genome DNA extraction kit. The agarose gel electrophoresis utilized a 1% agarose concentration. […] Electrophoresis was run at 110 V for 25 min, followed by the removal of the rubber plate and placement in the Tanon-2500B (Tanon Science and Technology Co., Ltd., Shanghai, China) for visualization.

In data set [6] the test system is P. digitatum. Nature of the data set: Fruit decay test, green mold on mandarins. Format: in vivo, Penicillium digitatum. The note with it: mean ± SD. The text has this:
This experiment followed the method of Zhou et al. with some adjustments. The effects of three peptides on the control of green mold in citrus in vivo were studied by measuring the incidence rate and spot diameters on the citrus fruit. Mandarins were purchased from a local supermarket and selected for uniform size, ripeness, and a lack of mechanical damage. The mandarins were soaked in 75% alcohol for 30 s and then in 1% NaClO for 30 s, followed by rinsing with sterile water and drying with sterile paper to remove excess surface water. A sterile needle was used to drill holes near the equator (about 3 mm deep), and each mandarin was inoculated with 10 µL of 100 μM concentrations of three peptide solutions and 1 × 10^5 CFU/mL P. digitatum suspension (v/v 1:1), compared with a mixture of equal parts sterile water and P. digitatum suspension. The mandarins were placed in a […] container with sterile wet paper towels in order to preserve their freshness. A humid environment was maintained in the container, and the fruit was stored at room temperature. The incidence rate and spot diameter of the mandarins were measured in accordance with the method of Zhang et al.. Each treatment group contained eight fruits, and each treatment was repeated three times.

The test system of data set [7] is P. digitatum. The note with it: against P. digitatum; cited from earlier work. The text has this:
Conidia generated by P. digitatum are disseminated to the surface of fruits via wind, rain, soil dust, and other media. Upon landing on the surface or wound of the fruit, these conidia promptly germinate, leading to fruit decay. […] In the present s ...

The mark [8] stands for this setting: 5 d, 100 μM peptide + spores (1:1), three replicates.
The mark [9] stands for this setting: 6 d, 100 μM peptide + spores (1:1), three replicates.
Setting [10] is: 7 d, 100 μM peptide + spores (1:1), three replicates.
[11] abbreviates: 8 d, 100 μM peptide + spores (1:1), three replicates.
[12] abbreviates: 9 d, 100 μM peptide + spores (1:1), three replicates.
Setting [13] is: 10 d, 100 μM peptide + spores (1:1), three replicates.

For the compound `CC[C@H](C)[C@H](NC(=O)[C@H](CCCCN)NC(=O)[C@H](CCCCN)NC(=O)[C@H](Cc1ccccc1)NC(=O)[C@H](CC(C)C)NC(=O)[C@H](CCCCN)NC(=O)[C@@H](N)CCCCN)C(=O)N[C@@H](CC(C)C)C(=O)N[C@@H](CCCCN)C(=O)N[C@H](C(=O)N[C@@H](CC(C)C)C(N)=O)C(C)C` [BP15], the MFC in data set [1] (48 h) was 6.25 µM (≈ 8.48 µg/mL). Further, the MIC (commonly the smallest concentration in the dilution series that meets the test's criterion for growth inhibition) in data set [1] (OD600nm) was 3.12 µM (≈ 4.23 µg/mL). In data set [2], the hemolytic activity entry is listed as “low hemolysis”.

With `CCCCCC(=O)N[C@@H](CCCCN)C(=O)N[C@@H](CCCCN)C(=O)N[C@@H](CC(C)C)C(=O)N[C@@H](Cc1ccccc1)C(=O)N[C@@H](CCCCN)C(=O)N[C@@H](CCCCN)C(=O)N[C@H](C(=O)N[C@@H](CC(C)C)C(=O)N[C@@H](CCCCN)C(=O)N[C@H](C(=O)N[C@@H](CC(C)C)C(N)=O)C(C)C)[C@@H](C)CC` [HBP15], the MFC in data set [1] (48 h) was found to be 6.25 µM (≈ 9.09 µg/mL). The MIC in data set [1] (OD600nm) amounted to 3.12 µM (≈ 4.54 µg/mL). In addition, in data set [3], the mycelial survival rate stood at 16.31%. Also, the “SG fluorescence in mycelia” value was “extensive continuous green fluorescence” in data set [4] (peptide at 100 μM); “enhanced fluorescence intensity and continuity” in data set [4] (peptide at 2 MIC); “no fluorescence” in data set [4] (peptide at MIC). Also, the “peptide concentration at which DNA bands were no longer visible” value in data set [5] was 25 µM. The “Spot Diameter” value in data set [6] (setting [8]) was 1.41 ± 0.80 ^c mm; in data set [6] (setting [9]) it was 4.45 ± 0.80 ^c mm; in data set [6] (setting [10]), 9.76 ± 0.84 ^c mm; in data set [6] (setting [11]), 14.81 ± 1.19 ^c mm; in data set [6] (setting [12]), 19.72 ± 1.95 ^c mm; in data set [6] (setting [13]) it was 23.27 ± 3.61 ^c mm. The “Incidence Rate” value in data set [6] (5 d, 10 µL of 100 μM peptide + 1 × 10^5 CFU/mL spores (1:1), room temperature, three replicates of eight fruits) is on record as 12.50 ± 0.00 ^c %; in data set [6] (setting [9]), 20.83 ± 7.22 ^c %; in data set [6] (setting [10]), 37.50 ± 0.00 ^c %; in data set [6] (setting [11]), 37.50 ± 0.00 ^c %; in data set [6] (setting [12]) it was 37.50 ± 0.00 ^c %; in data set [6] (setting [13]), 41.67 ± 7.22 ^b %. Besides, the hemolytic activity result in data set [2] is recorded as “low hemolysis”.

In the case of `CCCCCCCCCCCC(=O)N[C@@H](CCCCN)C(=O)N[C@@H](CCCCN)C(=O)N[C@@H](CC(C)C)C(=O)N[C@@H](Cc1ccccc1)C(=O)N[C@@H](CCCCN)C(=O)N[C@@H](CCCCN)C(=O)N[C@H](C(=O)N[C@@H](CC(C)C)C(=O)N[C@@H](CCCCN)C(=O)N[C@H](C(=O)N[C@@H](CC(C)C)C(N)=O)C(C)C)[C@@H](C)CC` [LBP15], the MFC in data set [1] (48 h) was 6.25 µM (≈ 9.62 µg/mL). The “inhibitory effect on P. digitatum growth” value in data set [1] (at 0.78 and 1.56 μM, 48 h, OD600nm) is reported as “No obvious inhibitory effect”. The compound also displayed an MIC in data set [1] (OD600nm) of 3.12 µM (≈ 4.8 µg/mL). For the same compound, the mycelial survival rate in data set [3] turned out to be 10.40%. Further, the “SG fluorescence in mycelia” value in data set [4] (peptide at 100 μM) was “extensive continuous green fluorescence”; in data set [4] (peptide at 2 MIC), “enhanced fluorescence intensity and continuity”; in data set [4] (peptide at MIC) it was “weak green fluorescence”. In data set [5], the “peptide concentration at which DNA bands were no longer visible” value was determined as 50 µM. The “Spot Diameter” value in data set [6] (setting [8]) is 10.80 ± 4.93 ^b mm; in data set [6] (setting [9]) it was 21.23 ± 4.46 ^b mm; in data set [6] (setting [10]) it was 34.00 ± 10.39 ^b mm; in data set [6] (setting [11]), 45.60 ± 13.19 ^b mm; in data set [6] (setting [12]), 54.08 ± 12.44 ^b mm; in data set [6] (setting [13]), 69.6 ± 8.37 ^b mm. Further, the “Incidence Rate” value was 70.83 ± 19.09 ^b % in data set [6] (setting [9]); 80.83 ± 11.54 ^b % in data set [6] (setting [10]); 80.83 ± 11.54 ^b % in data set [6] (setting [11]); 80.83 ± 11.54 ^b % in data set [6] (setting [12]); 87.50% and 87.50 ± 0.00 ^a % in data set [6] (setting [13]). Besides, the hemolytic activity entry in data set [2] was “low hemolysis”.

“GHRKKWFW [PAF56, synthetic short cationic antimicrobial peptide (GHRKKWFW), literature comparator]”: in data set [7], the MIC is 8 µM.
